# Measured values: patent publication US20250296971A1, “GASTRIC INHIBITORY PEPTIDE RECEPTOR LIGANDS” (priority 2021, published 2025)
# pIC50, pKd: −log10 of the molar value. Like-named read-outs stand apart in the source and are kept apart here. *1 amine or outer side, *2 acyl side, *3 side chain or, on linkers, in order; H or OH if unused. Where a SMILES comes first, the peptide text is derived from it. Bridges are numbered along the chain shown (N, C = ends). [ ]: non-standard residue; d: D form. The star is where a group is joined. X11 = O=C(CN1CCN2CCN3CCN(CC1)CC(=O)[O][In]([O]C(=O)C2)[O]C(=O)C3)NCCCOCCOCCOCCCN*; X13 = O=C(CN1CCN2CCN3CCN(CC1)CC(=O)[O][Lu]([O]C(=O)C2)[O]C(=O)C3)NCCCOCCOCCOCCCN*; NH(CH2)5NHDOTA = O=C(O)CN1CCN(CC(=O)O)CCN(CC(=O)NCCCCCN*)CCN(CC(=O)O)CC1; DOTA(In) = O=C1CN2CCN3CCN(CC(=O)*)CCN(CC2)CC(=O)[O][In]([O]1)[O]C(=O)C3; X3 = O=C(O)CN1CCN(CC(=O)O)CCN(CC(=O)NCCCOCCOCCOCCCN*)CCN(CC(=O)O)CC1; NH(1-deoxy-D-glucityl) = OC[C@@H](O)[C@@H](O)[C@H](O)[C@@H](O)CN*; X8 = O=C(O)CN1CCN(CC(=O)O)CCN(CC(=O)N2CCN(*)CC2)CCN(CC(=O)O)CC1; Pro(trans-4-NH2) = O=C([C@@H]1C[C@@H](N[*:3])CN1[*:1])[*:2]; DOTA = O=C(O)CN1CCN(CC(=O)O)CCN(CC(=O)*)CCN(CC(=O)O)CC1; Trp(5-Cl) = N[C@@H](Cc1c[nH]c2ccc(Cl)cc12)C(=O)O; Pyridine(2,6-diCH2) = c1cc(C[*:1])nc(C[*:2])c1; Glutaryl = O=C(CCCC(=O)[*:2])[*:1]; X6 = c1cc(CSCCN[*:2])nc(C[*:1])c1; X7 = c1cc(CSCCN[*:2])cc(C[*:1])c1; Hyp = O=C(O)[C@@H]1C[C@@H](O)CN1; X1 = O=C(CN1CCC(N[*:1])CC1)[*:2]; Suc = O=C(CCC(=O)[*:2])[*:1]; Api = NC1(C(=O)O)CCNCC1; Thp = NC1(C(=O)O)CCOCC1; Aib = CC(C)(N)C(=O)O
# Columns and labels:
# [1] = molecular target: T1, GIPR (CHO-K1-hGIPR cells) (Homo sapiens, UniProt P48546); experiment: FACS binding assay; settings: competition with 20 nM GIP-057, 4° C., 1 hour; for IC50: read-out: pIC50 Category (converted)
# T1 construct: host or cells: CHO-K1
# T1 sequence (P48546 22-466): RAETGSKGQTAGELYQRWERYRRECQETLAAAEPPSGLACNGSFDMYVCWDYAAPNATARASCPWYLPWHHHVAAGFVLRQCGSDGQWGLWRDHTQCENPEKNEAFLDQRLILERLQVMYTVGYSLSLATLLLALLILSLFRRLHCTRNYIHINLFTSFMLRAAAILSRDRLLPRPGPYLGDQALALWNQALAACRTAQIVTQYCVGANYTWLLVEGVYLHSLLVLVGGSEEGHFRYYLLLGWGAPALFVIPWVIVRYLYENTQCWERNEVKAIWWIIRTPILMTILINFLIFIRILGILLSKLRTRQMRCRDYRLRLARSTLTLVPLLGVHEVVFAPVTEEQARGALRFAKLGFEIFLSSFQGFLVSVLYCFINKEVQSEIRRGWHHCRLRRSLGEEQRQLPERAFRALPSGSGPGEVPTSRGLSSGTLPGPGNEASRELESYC
# How it was run: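 Read-out: flow cytometric median fluorescence intensity, APC/Cy5 channel, plotted vs peptide conc.; 4PL fit → EC50/pEC50 or IC50/pIC50. Cells: CHO-K1-hGIPR, Accutase-detached, 500.000/mL in PBS + 1% FCS. Detection: APC-streptavidin 1 μg/mL, 30 min, on ice.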
# [2] = molecular target: T2, human GIP receptor (bioGIPR) (Homo sapiens, UniProt P48546); experiment: Surface plasmon resonance (SPR) based binding assay; settings: for t1/2 Category: SPR dissociation half-life; for t1/2 Category / Kd: Single Cycle Kinetic mode, 25° C.; for Kd: SPR, 1:1 Langmuir binding model, read-out: pKD Category (converted)
# T2 construct: Biotinylate extracellular of the human GIP receptor (bioGIPR, Proteros biostructures GmbH, lot #02/2b); purchased Proteros biostructures GmbH lot #02/2b
# T2 sequence (P48546 22-138 limits assumed): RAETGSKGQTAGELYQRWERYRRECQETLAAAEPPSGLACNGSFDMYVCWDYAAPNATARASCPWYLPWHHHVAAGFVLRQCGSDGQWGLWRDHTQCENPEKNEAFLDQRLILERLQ
# How it was run: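 Binding was measured at 25 °C by single-cycle kinetics against a reference flow cell, with blank-run and drift correction, after capturing biotinylated GIPR extracellular domain to ~3500 RU. Running buffer: HBST, 0.1% DMSO. A 1:1 Langmuir model gave kinetic rates, KD, t1/2 and pKD.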
Structure (SMILES),IC50 [1],t1/2 Category [2],Kd [2],pIC50 ([1]; pIC50 Category),pKd [2]
"CC[C@H](C)[C@@H]1NC(=O)[C@H](CC(C)C)NC(=O)C2(CCNCC2)NC(=O)[C@@H](NC(=O)[C@@H](CC(C)C)NC(=O)[C@H](CCC(=O)O)NC(=O)[C@@H]2C[C@@H](N)CN2C(=O)[C@H](Cc2c[nH]c3ccc(Cl)cc23)NC(=O)[C@H](Cc2c[nH]c3ccccc23)NC(=O)[C@H](CC(=O)O)NC(=O)CCC(=O)NCCCOCCOCCOCCCNC(=O)CN2CCN(CC(=O)O)CCN(CC(=O)O)CCN(CC(=O)O)CC2)CNCc2cccc(n2)CSCCNC1=O [GIP-113, DOTA-Ttds-Asp-Trp-5Clw-Tap-Glu-leu-[Dap(2Lut)-Apc-Leu-Ile-AET]]",< 10 nM,A (t1/2 values>15 min),< 1 nM,,
"CC[C@H](C)[C@@H]1NC(=O)[C@H](CC(C)C)NC(=O)C2(CCOCC2)NC(=O)[C@@H](NC(=O)[C@@H](CC(C)C)NC(=O)[C@H](CCC(=O)O)NC(=O)[C@@H]2C[C@@H](O)CN2C(=O)[C@H](Cc2c[nH]c3ccc(Cl)cc23)NC(=O)[C@H](Cc2c[nH]c3ccccc23)NC(=O)CCC(=O)O)CSCc2cccc(n2)CSC[C@@H](C(=O)NCCCCCNC(=O)CN2CCN(CC(=O)O)CCN(CC(=O)O)CCN(CC(=O)O)CC2)NC1=O [GIP-117, HO-Succinyl-Trp-5Clw-Hyp-Glu-leu-[Cys(2Lut)-Thp-Leu-Ile-Cys]-Ape-DOTA] (Suc-W[Trp(5-Cl)][Hyp]E[dL]C[Thp]LIC-{NH(CH2)5NHDOTA}; linker 6-10 via Pyridine(2,6-diCH2))",< 10 nM,A (t1/2 values>15 min),< 1 nM,,
"CC[C@H](C)[C@@H]1NC(=O)[C@H](CC(C)C)NC(=O)C2(CCOCC2)NC(=O)[C@@H](NC(=O)[C@@H](CC(C)C)NC(=O)[C@H](CCC(=O)O)NC(=O)[C@@H]2C[C@@H](O)CN2C(=O)[C@H](Cc2c[nH]c3ccc(Cl)cc23)NC(=O)[C@H](Cc2c[nH]c3ccccc23)NC(=O)CCC(=O)O)CSCc2cccc(n2)CSC[C@@H](C(=O)N2CCN(C(=O)CN3CCN(CC(=O)O)CCN(CC(=O)O)CCN(CC(=O)O)CC3)CC2)NC1=O [GIP-118, HO-Succinyl-Trp-5Clw-Hyp-Glu-leu-[Cys(2Lut)-Thp-Leu-Ile-Cys]-PP-DOTA] (Suc-W[Trp(5-Cl)][Hyp]E[dL]C[Thp]LIC-X8; linker 6-10 via Pyridine(2,6-diCH2))",< 10 nM,A (t1/2 values>15 min),< 1 nM,,
"CC[C@H](C)[C@@H]1NC(=O)[C@H](CC(C)C)NC(=O)C2(CCNCC2)NC(=O)[C@@H](NC(=O)[C@@H](CC(C)C)NC(=O)[C@H](CCC(=O)O)NC(=O)[C@@H]2CCCN2C(=O)[C@H](Cc2c[nH]c3ccc(Cl)cc23)NC(=O)[C@H](Cc2c[nH]c3ccccc23)NC(=O)[C@H](CC(=O)O)NC(=O)CCC(=O)NCCCOCCOCCOCCCNC(=O)CN2CCN(CC(=O)O)CCN(CC(=O)O)CCN(CC(=O)O)CC2)CSCc2cccc(n2)CSCCNC1=O [GIP-119, DOTA-Ttds-Asp-Trp-5Clw-Pro-Glu-leu-[Cys(2Lut)-Apc-Leu-Ile-AET]] ({X3-Suc}-DW[Trp(5-Cl)]PE[dL]C[Api]LI; linker 7-C via X6)",< 10 nM,A (t1/2 values>15 min),< 1 nM,,
"CC[C@H](C)[C@@H]1NC(=O)[C@H](CC(C)C)NC(=O)C2(CCOCC2)NC(=O)[C@@H](NC(=O)[C@@H](CC(C)C)NC(=O)[C@H](CCC(=O)O)NC(=O)[C@@H]2C[C@@H](NC(=O)CN3CCN(CC(=O)O)CCN(CC(=O)O)CCN(CC(=O)O)CC3)CN2C(=O)[C@H](Cc2c[nH]c3ccc(Cl)cc23)NC(=O)[C@H](Cc2c[nH]c3ccccc23)NC(=O)[C@H](CC(=O)O)NC(C)=O)CSCc2cccc(n2)CSC[C@@H](C(N)=O)NC1=O [GIP-121, Ac-Asp-Trp-5Clw-Tap(DOTA)-Glu-leu-[Cys(2Lut)-Thp-Leu-Ile-Cys]-NH2] (Ac-DW[Trp(5-Cl)][Pro(trans-4-NH2)](DOTA)E[dL]C[Thp]LIC-NH2; linker 7-11 via Pyridine(2,6-diCH2))",< 10 nM,A (t1/2 values>15 min),< 1 nM,,
"CC[C@H](C)[C@@H]1NC(=O)[C@H](CC(C)C)NC(=O)C2(CCN(C(=O)CN3CCN4CCN5CCN(CC3)CC(=O)[O][In]([O]C(=O)C5)[O]C(=O)C4)CC2)NC(=O)[C@@H](NC(=O)[C@@H](CC(C)C)NC(=O)[C@H](CCC(=O)O)NC(=O)[C@@H]2C[C@@H](O)CN2C(=O)[C@H](Cc2c[nH]c3ccc(Cl)cc23)NC(=O)[C@H](Cc2c[nH]c3ccccc23)NC(=O)[C@H](CC(=O)O)NC(=O)CCCC(=O)NC[C@H](O)[C@@H](O)[C@H](O)[C@H](O)CO)CSCc2cccc(n2)CSCCNC1=O [GIP-146, AGLU-Glutar-Asp-Trp-5Clw-Hyp-Glu-leu-[Cys(2Lut)-Apc(InDOTA)-Leu-Ile-AET]] ({NH(1-deoxy-D-glucityl)-Glutaryl}-DW[Trp(5-Cl)][Hyp]E[dL]C[Api](DOTA(In))LI; linker 7-C via X6)",< 10 nM,,< 1 nM,,
"CC[C@H](C)[C@@H]1NC(=O)[C@H](CC(C)C)NC(=O)C(C)(C)NC(=O)[C@@H](NC(=O)[C@@H](CC(C)C)NC(=O)[C@H](CCC(=O)O)NC(=O)[C@@H]2C[C@@H](O)CN2C(=O)[C@H](Cc2c[nH]c3ccc(Cl)cc23)NC(=O)[C@H](Cc2c[nH]c3ccccc23)NC(=O)[C@H](CC(=O)O)NC(=O)CCC(=O)NCCCOCCOCCOCCCNC(=O)CN2CCN3CCN4CCN(CC2)CC(=O)[O][In]([O]C(=O)C3)[O]C(=O)C4)CSCc2cccc(c2)CSCCNC1=O [GIP-151, InDOTA-Ttds-Asp-Trp-5Clw-Hyp-Glu-leu-[Cys(3MeBn)-Aib-Leu-Ile-AET]] ({X11-Suc}-DW[Trp(5-Cl)][Hyp]E[dL]C[Aib]LI; linker 7-C via X7)",< 10 nM,A (t1/2 values>15 min),< 1 nM,,
"CC[C@H](C)[C@@H]1NC(=O)[C@H](CC(C)C)NC(=O)C(C)(C)NC(=O)[C@@H](NC(=O)[C@@H](CC(C)C)NC(=O)[C@H](CCC(=O)O)NC(=O)[C@@H]2CCCN2C(=O)[C@H](Cc2c[nH]c3ccc(Cl)cc23)NC(=O)[C@H](Cc2c[nH]c3ccccc23)NC(=O)[C@H](CC(=O)O)NC(=O)CN2CCC(NC(=O)CN3CCN4CCN5CCN(CC3)CC(=O)[O][In]([O]C(=O)C4)[O]C(=O)C5)CC2)CSCc2cccc(c2)CSCCNC1=O [GIP-153, InDOTA-APAc-Asp-Trp-5Clw-Pro-Glu-leu-[Cys(3MeBn)-Aib-Leu-Ile-AET]] ({DOTA(In)}-[X1]DW[Trp(5-Cl)]PE[dL]C[Aib]LI; linker 8-C via X7)",< 10 nM,,< 1 nM,,
"CC[C@H](C)[C@@H]1NC(=O)[C@H](CC(C)C)NC(=O)C2(CCOCC2)NC(=O)[C@@H](NC(=O)[C@@H](CC(C)C)NC(=O)[C@H](CCC(=O)O)NC(=O)[C@@H]2C[C@@H](O)CN2C(=O)[C@H](Cc2c[nH]c3ccc(Cl)cc23)NC(=O)[C@H](Cc2c[nH]c3ccccc23)NC(=O)[C@H](CC(=O)O)NC(=O)CN2CCC(NC(=O)CN3CCN4CCN5CCN(CC3)CC(=O)[O][In]([O]C(=O)C4)[O]C(=O)C5)CC2)CSCc2cccc(n2)CSCCNC1=O [GIP-155, InDOTA-APAc-Asp-Trp-5Clw-Hyp-Glu-leu-[Cys(2Lut)-Thp-Leu-Ile-AET]] ({DOTA(In)}-[X1]DW[Trp(5-Cl)][Hyp]E[dL]C[Thp]LI; linker 8-C via X6)",< 10 nM,,< 1 nM,,
"CC[C@H](C)[C@@H]1NC(=O)[C@H](CC(C)C)NC(=O)C(C)(C)NC(=O)[C@@H](NC(=O)[C@@H](CC(C)C)NC(=O)[C@H](CCC(=O)O)NC(=O)[C@@H]2CCCN2C(=O)[C@H](Cc2c[nH]c3ccc(Cl)cc23)NC(=O)[C@H](Cc2c[nH]c3ccccc23)NC(=O)[C@H](CC(=O)O)NC(=O)CCC(=O)NCCCOCCOCCOCCCNC(=O)CN2CCN3CCN4CCN(CC2)CC(=O)[O][Lu]([O]C(=O)C3)[O]C(=O)C4)CSCc2cccc(c2)CSCCNC1=O [GIP-167, LuDOTA-Ttds-Asp-Trp-5Clw-Pro-Glu-leu-[Cys(3MeBn)-Aib-Leu-Ile-AET]] ({X13-Suc}-DW[Trp(5-Cl)]PE[dL]C[Aib]LI; linker 7-C via X7)",,A (t1/2 values>15 min),,> 8.00,> 9.00
